# According to publication PMC4197335, “Cancer-Selective Targeting of the NF-κB Survival Pathway with GADD45β/MKK7 Inhibitors” (Cancer Cell, 2014):
# Like-named read-outs stand apart in the source and are kept apart here. Where a SMILES comes first, the peptide text is derived from it. [ ]: non-standard residue; d: D form. The star is where a group is joined. Benzoyl(3-OH,4-OMe) = COc1ccc(C(=O)*)cc1O; ClZ = O=C(OCc1ccccc1Cl)*; Cbz = O=C(OCc1ccccc1)*
# How the values were obtained:
# [1] = molecular target: T1, GADD45β/MKK7 complex (Homo sapiens, UniProt O14733); experiment: ELISA GADD45β/MKK7 competition assay; assay type: binding; details: for inhibition at 0.042 µM / % inhibition (ELISA): peptide at 42 nM
# T1 construct: Full-length human (h)MKK7 was expressed as a protein fused to an N-terminal GST tag (GST-MKK7); made in house
# T1 sequence (O14733 1-419): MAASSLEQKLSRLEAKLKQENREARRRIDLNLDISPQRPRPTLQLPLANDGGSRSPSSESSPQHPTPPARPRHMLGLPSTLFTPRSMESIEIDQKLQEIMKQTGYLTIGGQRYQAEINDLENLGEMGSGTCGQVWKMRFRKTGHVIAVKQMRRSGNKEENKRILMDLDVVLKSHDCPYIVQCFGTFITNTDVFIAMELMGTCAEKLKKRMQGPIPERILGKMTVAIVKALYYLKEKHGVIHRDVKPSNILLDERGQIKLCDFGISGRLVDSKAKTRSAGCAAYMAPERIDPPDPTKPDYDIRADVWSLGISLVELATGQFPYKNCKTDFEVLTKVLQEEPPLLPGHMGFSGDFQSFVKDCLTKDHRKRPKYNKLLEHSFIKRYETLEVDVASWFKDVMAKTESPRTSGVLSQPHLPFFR
# From the text: Additional details are provided in Supplemental Experimental Procedures.
# (1:1,000) and the HRP chromogenic substrate, o -phenylenediamine (OPD). GST -coated wells wer e […]
# The ELISA competition screen used f or the isolation of antagonists of the GADD45β /MKK7 […]
# The library deconvolution strategy used for this screen was described previously […]
# General information about this type of screens can be found elsewhere […]
# Values were expressed as the percentage of inhibition of His6-hGADD45β binding to GST-hMKK7 relative to the binding measured in the absence of […]
# Dose-response, ELISA GADD45β /MKK7 competition assays were carried out under similar […]
# As part of the SAR analysis and lead optimization process, where appropriate, competitors were tested at a concentration up to 100 nM. In order to determine their stability in biolog ical f luids , peptides were incubated at the concentration of 10 µM in […]
# calculated using at least 7 concentrations of peptide and def ined as the mean concentration of peptide […]
# the absence of competitor. W here indicated, values were expressed as the percentage of inhibition of His 6 -hGADD45β binding to GST-hMKK7 relative to the binding measured in the absence of competitor.
# GST was used as a control in all the experiments. […]
# tetrapeptide used as negative control in some of the ELISA and cellular assays was as f ollows: z -DNC, z-T yr -Asp-His-Gln-NH 2 . […]
# [2] = system: U266 MM cells; details: read-out: IC50 (U266 cells); Table S3; day 6; [3H]thymidine incorporation or trypan blue exclusion
# [3] = pharmacokinetics after single intravenous injection
# Description: The pharmacokinetic analyses of DTP3 and z-DTP2 were outsourced. Additional details are provided in Supplemental Experimental Procedures. […]
# Pharmacokinetic Anal yses
# In vitro and in vivo pharmacok inetic analyses were outsourced to Cypr ot ex (http://www.c yprotex.com/home/) (Figure 7A, Tables S6). In vitro pharmacok inetic assays were perf ormed according to established, in- house protocols and included: plasma stability (human), thermodynamic solubility (PBS pH 7.4, at 37 °C f or 14 days), microsomal stability (human), plasma protein binding (PPB; mouse and human), and distribution coeff icient (LogD). In vivo pharmacok inetic […]
# analyses were also perf ormed at Cyprotex according to established, in- house protocols. Brief ly, the peptides were dissolved in PBS and administered by single intravenous injection t o CD1 male mice at the dose of 10 mg/kg (25 -30 g of total body weight; n=3 mice per time point per compound) . Blood samples were collected in heparinized tubes at up to 7 tim e points after this injection (i.e. 0.08, 0.25, 0.5, 1, 2, 4 and 8 hr), and the plasma concentrations of the test peptide were determined at each time point by LC-MS/ MS, using a f ive- point standard curve covering a peptide concentration range from 3 to 3,000 ng/mL. Standard curves were prepared using blank plasma matrices and treated in the same manner as the test samples. The main pharmacok inetic parameters determined in these analyses were: terminal half-lif e (t 1/2 ), plasma clearance (CL), volume of distribution (V d ), and area under the plasma concentration versus time curve (AUC) (Figure 7A, Table S6). Values were calculated from the data of the peptide plasma concentration versus time curves using a non-compartmental model analysis, as described elsewhere (Groulx, 2006; Landaw and Di Stef ano 3rd, 1982) . […]
# [4] = Table S3, peptide at 10 nM, read-out: % inhibition (ELISA)
# [5] = Table S3, read-out: IC50 (ELISA)
# [6] = Table S2, read-out: % inhibition (ELISA)
# [7] = Table S4, read-out: IC50s (ELISA)
# [8] = Figure 3A, before preincubation with human serum, read-out: IC50
# [9] = Figure 3B, after a 48 hr preincubation with human serum, read-out: IC50
# [10] = Table S4, values marked (#), read-out: % inhibition of (ELISA)
molecule,measurement,setting,value
NC(=O)[C@@H](Cc1ccccc1)NC(=O)[C@@H](Cc1c[nH]cn1)NC(=O)[C@@H](CC(=O)O)NC(=O)[C@@H](Cc1ccc(O)cc1)NC(=O)c1ccccc1 [Benzoyl-YDHF-NH2],IC50,[1],> 10 nM
same,inhibition at 0.01 µM,[1]; read-out: % inhibition (ELISA),0%
same,inhibition at 0.01 µM,[1]; read-out: % inhibition of (ELISA),1%
same,IC50,[2],> 10000 nM
N=C(N)NCCC[C@@H](NC(=O)[C@@H](CCC(=O)O)NC(=O)[C@@H](Cc1ccc(O)cc1)NC(=O)c1ccccc1)C(=O)N[C@H](Cc1ccccc1)C(N)=O [Benzoyl-YERF-NH2],IC50,[1],> 10 nM
same,inhibition at 0.01 µM,[1]; read-out: % inhibition (ELISA),24%
same,IC50,[2],> 10000 nM
CCCCCCCCCCCCCC(=O)N[C@H](Cc1ccc(O)cc1)C(=O)N[C@H](CCC(=O)O)C(=O)N[C@H](CCCNC(=N)N)C(=O)N[C@H](Cc1ccccc1)C(N)=O [Myr-YERF-NH2],inhibition at 0.01 µM,[1]; [4],37%
same,IC50,[1]; [5],> 10 nM
same,IC50,[2],> 10000 nM
CCCCCCCCCCCCCC(=O)N[C@H](Cc1ccc(O)cc1)C(=O)N[C@H](CC(=O)O)C(=O)N[C@H](Cc1c[nH]cn1)C(=O)N[C@H](CCC(N)=O)C(N)=O [Myr-YDHQ-NH2],inhibition at 0.01 µM,[1]; [4],28%
same,IC50,[1]; [5],> 10 nM
same,IC50,[2],> 10000 nM
CC(=O)N[C@@H](Cc1c[nH]c2ccccc12)C(=O)N[C@@H](CC(=O)O)C(=O)N[C@@H](Cc1c[nH]cn1)C(=O)N[C@@H](Cc1ccccc1)C(N)=O [Ac-WDHF-NH2] (Ac-WDHF-NH2),inhibition at 0.042 µM,[1]; [6],28%
same,IC50,[1]; [7],> 42 nM
"CC(=O)N[C@@H](Cc1ccc(O)cc1)C(=O)N[C@@H](CC(=O)O)C(=O)N[C@@H](Cc1c[nH]cn1)C(=O)N[C@@H](Cc1ccccc1)C(N)=O [Ac-LTP1, Ac-YDHF-NH2]",IC50,[1]; [8],0.4 nM
same,IC50,[1]; [9],> 10 nM
same,inhibition at 0.042 µM,[1]; [6],94%
Ac-WDRF-NH2,% inhibition (ELISA),[1]; Table S2,45%
CC(=O)N[C@@H](Cc1c[nH]c2ccccc12)C(=O)N[C@@H](CCC(=O)O)C(=O)N[C@@H](Cc1c[nH]cn1)C(=O)N[C@@H](Cc1c[nH]c2ccccc12)C(N)=O [Ac-WEHW-NH2] (Ac-WEHW-NH2),inhibition at 0.042 µM,[1]; [6],75%
same,IC50,[1]; [7],< 42 nM
CC(=O)N[C@@H](Cc1ccc(O)cc1)C(=O)N[C@@H](CCC(=O)O)C(=O)N[C@@H](CCCCN)C(=O)N[C@@H](Cc1c[nH]c2ccccc12)C(N)=O [Ac-YEKW-NH2] (Ac-YEKW-NH2),inhibition at 0.042 µM,[1]; [6],22%
same,IC50,[1]; [7],> 42 nM
"CC(=O)N[C@H](Cc1ccc(O)cc1)C(=O)N[C@H](CCC(=O)O)C(=O)N[C@H](CCCNC(=N)N)C(=O)N[C@H](Cc1ccccc1)C(N)=O [Ac-DTP2, Ac-Tyr-Glu-Arg-Phe-NH2]",IC50,[1]; [8],0.22 nM
same,IC50,[1]; [9],0.22 nM
"CC(=O)N[C@H](Cc1ccc(O)cc1)C(=O)N[C@H](CC(=O)O)C(=O)N[C@H](Cc1c[nH]cn1)C(=O)N[C@H](Cc1ccccc1)C(N)=O [Ac-DTP1, Ac-Tyr-Asp-His-Phe-NH2]",IC50,[1]; [8],0.19 nM
same,IC50,[1]; [9],0.2 nM
COC(=O)C[C@@H](NC(=O)[C@@H](Cc1ccc(O)cc1)NC(=O)OCc1ccccc1)C(=O)N[C@H](Cc1c[nH]cn1)C(=O)N[C@H](Cc1ccccc1)C(N)=O [z-YD(O-methyl)HF-NH2] (Cbz-[dY][dD](OMe)[dH][dF]-NH2),inhibition at 0.01 µM,[1]; [4],84%
same,IC50,[1]; [5],> 10 nM
CC(=O)N[C@@H](Cc1ccc(O)cc1)C(=O)N[C@@H](CC(=O)O)C(=O)N[C@@H](CCCCN)C(=O)N[C@@H](Cc1c[nH]c2ccccc12)C(N)=O [Ac-YDKW-NH2] (Ac-YDKW-NH2),inhibition at 0.042 µM,[1]; [6],43%
same,IC50,[1]; [7],> 10 nM
N=C(N)NCCC[C@@H](NC(=O)[C@@H](CCC(=O)O)NC(=O)[C@@H](Cc1ccc(O)cc1)NC(=O)OCc1ccccc1Cl)C(=O)N[C@H](Cc1ccccc1)C(N)=O [2CI-z-YERF-NH2] (ClZ-[dY][dE][dR][dF]-NH2),inhibition at 0.01 µM,[1]; [4],38%
same,IC50,[1]; [5],> 10 nM
CC(=O)N[C@H](Cc1ccc(O)cc1)C(=O)N1CCC[C@@H]1C(=O)N[C@H](CCCNC(=N)N)C(=O)N[C@H](Cc1ccccc1)C(N)=O [Ac-YPRF-NH2] (Ac-[dY][dP][dR][dF]-NH2),inhibition at 0.042 µM,[1]; [10],13%
"COc1ccc(C(=O)N[C@H](Cc2ccc(O)cc2)C(=O)N[C@H](CC(=O)O)C(=O)N[C@H](Cc2c[nH]cn2)C(=O)N[C@H](Cc2ccccc2)C(N)=O)cc1O ({Benzoyl(3-OH,4-OMe)}-[dY][dD][dH][dF]-NH2)",inhibition at 0.01 µM,[1]; read-out: % inhibition (ELISA),81%
"N=C(N)NCCC[C@@H](NC(=O)[C@@H](CCC(=O)O)NC(=O)[C@@H](Cc1ccc(O)cc1)NC(=O)OCc1ccccc1)C(=O)N[C@H](Cc1ccccc1)C(N)=O [z-DTP2, z-YERF-NH2] (Cbz-[dY][dE][dR][dF]-NH2)",inhibition at 0.01 µM,[1]; [4],95%
same,predicted dose required to achieve the therapeutic plasma concentration of 1 μM at the steady state,[3]; k0 = k1 x Vd x Cp,3.61 mg/kg/h
same,AUC,"[3]; mouse, in vivo, iv, 10 mg/kg",2060 ± 250 ng·h/mL
same,Vd,"[3]; mouse, in vivo, iv, 10 mg/kg",14.6 ± 2.23 L/kg
same,clearance,"[3]; mouse, in vivo, iv, 10 mg/kg",78.1 ± 11.7 mL/min/kg
same,half-life,"[3]; mouse, in vivo, iv, 10 mg/kg",2.09 ± 0.07 h
"NC(=O)CC[C@@H](NC(=O)[C@@H](Cc1c[nH]cn1)NC(=O)[C@@H](CC(=O)O)NC(=O)[C@@H](Cc1ccc(O)cc1)NC(=O)OCc1ccccc1)C(N)=O [z-DNC, z-YDHQ-NH2] (Cbz-[dY][dD][dH][dQ]-NH2)",inhibition at 0.01 µM,[1]; [4],12%
Ac-WDHW-NH2,% inhibition (ELISA),[1]; Table S2,50%
CC(=O)N[C@H](Cc1ccc(O)cc1)C(=O)N[C@H](CC(=O)O)C(=O)N[C@H](Cc1c[nH]cn1)C(=O)N[C@H](Cc1ccccc1)C(=O)N[C@H](CCCCNC(=O)OCc1ccccc1)C(N)=O [Ac-YDHFK(εZ)-NH2] (Ac-[dY][dD][dH][dF][dK](Cbz)-NH2),inhibition at 0.01 µM,[1]; [4],8%
same,IC50,[1]; [5],> 10 nM
CC(=O)N[C@H](Cc1ccc(O)cc1)C(=O)N[C@H](CCC(=O)O)C(=O)N[C@H](CCCNC(=N)N)C(=O)N[C@H](Cc1ccccc1)C(=O)N[C@H](CCCCNC(=O)OCc1ccccc1)C(N)=O [Ac-YERFK(εZ)-NH2] (Ac-[dY][dE][dR][dF][dK](Cbz)-NH2),inhibition at 0.01 µM,[1]; [4],6%
same,IC50,[1]; [5],> 10 nM
CC(=O)N[C@H](Cc1ccc(O)cc1)C(=O)N[C@H](CCC(=O)O)C(=O)N[C@H](CCCNC(=N)N)C(=O)N1CCC[C@@H]1C(N)=O [Ac-YERP-NH2] (Ac-[dY][dE][dR][dP]-NH2),inhibition at 0.042 µM,[1]; [10],0%
Ac-YDRW-NH2,% inhibition (ELISA),[1]; Table S2,43%
Ac-YDHW-NH2,% inhibition (ELISA),[1]; Table S2,57%
Ac-YERW-NH2,% inhibition (ELISA),[1]; Table S2,27%
CC(=O)N[C@@H](Cc1c[nH]c2ccccc12)C(=O)N[C@@H](CCC(=O)O)C(=O)N[C@@H](CCCCN)C(=O)N[C@@H](Cc1ccccc1)C(N)=O [Ac-WEKF-NH2] (Ac-WEKF-NH2),inhibition at 0.042 µM,[1]; [6],65%
same,IC50,[1]; [7],< 42 nM
